Source: paper PMC8951032, “Study of Biological Activities and ADMET-Related Properties of Novel Chlorinated N-arylcinnamamides” (International Journal of Molecular Sciences, 2022)

Assay: Lipophilicity determination by RP-HPLC (log k, log D)
Format: physicochemical
Conditions: for log k: MeOH 72%/H2O 28%; for log D6.5: MeOH 72%/acetate buffered saline pH 6.5; for log D7.4: MeOH 72%/acetate buffered saline pH 7.4
Method: In addition to the mentioned ADME profile, it is responsible for interactions with biological targets. Lipophilicity is recognized as one of the most important parameters influencing ADME and bioactivity and is also part, e.g., of Lipinski’s Rule of Five (Ro5). This thermodynamic parameter describing the molecule’s affinity for an aqueous or relatively lipophilic environment can be characterized by the logarithm of the partition coefficient (log P). In this study, lipophilicity was measured by reversed-phase high-performance liquid chromatography (RP-HPLC) under isocratic conditions with methanol as the organic modifier in the aqueous mobile phase and the logarithm of the capacity factor k was calculated, which is used as the lipophilicity index converted to the log P scale. In addition to the log k values, the logarithm of the distribution coefficient DpH at pH 6.5 and 7.4 was determined to clarify the behavior of the compounds under physiological conditions and possible ionization. Instead of water, a buffer of suitable pH was used as part of the mobile phase. In addition to the above-mentioned experimental methods, commercially available ChemBioDraw Ultra 13.0 and ACD/Percepta ver. 2012 programs were used to calculate the lipophilicity values of all prepared compounds.
A HPLC separation module Waters Alliance 2695 XE equipped with a Waters Dual Absorbance Detector 2486 (Waters Corp., Milford, MA, USA) was used. A chromatographic column Symmetry® C18 5 μm, 4.6 × 250 mm, Part No. W21751W016 (Waters Corp., Milford, MA, USA) was used. The HPLC separation process was monitored by Empower® 3 Chromatography Manager Software (Waters Corp.). Isocratic elution by a mixture of MeOH p.a. (72%) and H2O-HPLC Mili-Q grade (28%) as a mobile phase was used for the determination of capacity factor k. Isocratic elution by a mixture of MeOH p.a. (72%) and acetate buffered saline (pH 7.4 and pH 6.5) (28%) as a mobile phase was used for the determination of distribution coefficient expressed as D7.4 and D6.5. The total flow of the column was 1.0 mL/min, injection 20 μL, column temperature 40 °C, and sample temperature 10 °C. The detection wavelength of 210 nm was chosen. A KI methanolic solution was used for the determination of the dead times (tD). Retention times (tR) were measured in minutes. The capacity factors k were calculated according to the formula k = (tR − tD)/tD, where tR is the retention time of the solute, and tD is the dead time obtained using an unretained analyte. The distribution coefficients DpH were calculated according to the formula DpH = (tR − tD)/tD. Each experiment was repeated three times.

Structure (SMILES) | log k | log D6.5 | log D7.4
O=C(/C=C/c1ccc(Cl)c(Cl)c1)Nc1ccc(Cl)cc1Cl [2n, (2E)-N-(2,4-Dichlorophenyl)-3-(3,4-dichlorophenyl)prop-2-enamide] | 1.0932 | 1.0985 | 1.0565
O=C(/C=C/c1ccc(Cl)cc1)Nc1ccc(C(F)(F)F)cc1 [1j, (2E)-3-(4-Chlorophenyl)-N-[4-(trifluoromethyl)phenyl]prop-2-enamide] | 0.9078 | 0.8541 | 0.8560
O=C(/C=C/c1ccc(Cl)c(Cl)c1)Nc1ccc(F)cc1F [2l, (2E)-3-(3,4-Dichlorophenyl)-N-(2,4-difluorophenyl)prop-2-enamide] | 0.6989 | 0.7094 | 0.6632
O=C(/C=C/c1ccc(Cl)cc1)Nc1cccc(Cl)c1 [1f, (2E)-N-(3-Chlorophenyl)-3-(4-chlorophenyl)prop-2-enamide] | 0.6192 | 0.5603 | 0.5666
O=C(/C=C/c1ccc(Cl)c(Cl)c1)Nc1ccc(Cl)cc1 [2g, (2E)-N-(4-Chlorophenyl)-3-(3,4-dichlorophenyl)prop-2-enamide] | 0.6786 | 0.7224 | 0.7021
O=C(/C=C/c1ccc(Cl)c(Cl)c1)Nc1cccc(F)c1 [2c, (2E)-N-(3-Fluorophenyl)-3-(3,4-dichlorophenyl)prop-2-enamide] | 0.9071 | 0.9453 | 0.8735
O=C(/C=C/c1ccc(Cl)cc1)Nc1ccc(Cl)cc1Cl [1n, (2E)-3-(4-Chlorophenyl)-N-(2,4-dichlorophenyl)prop-2-enamide] | 0.9665 | 0.9141 | 0.9170
O=C(/C=C/c1ccc(Cl)c(Cl)c1)Nc1ccc(F)cc1 [2d, (2E)-N-(4-Fluorophenyl)-3-(3,4-dichlorophenyl)prop-2-enamide] | 0.9009 | 0.9381 | 0.8660
O=C(/C=C/c1ccc(Cl)cc1)Nc1ccc(F)cc1 [1d, (2E)-3-(4-Chlorophenyl)-N-(4-fluorophenyl)prop-2-enamide] | 0.7808 | 0.7252 | 0.7290
O=C(/C=C/c1ccc(Cl)cc1)Nc1cc(F)cc(F)c1 [1m, (2E)-3-(4-Chlorophenyl)-N-(3,5-difluorophenyl)prop-2-enamide] | 0.8054 | 0.7502 | 0.7537
O=C(/C=C/c1ccc(Cl)cc1)Nc1ccccc1Cl [1e, (2E)-N-(2-Chlorophenyl)-3-(4-chlorophenyl)prop-2-enamide] | 0.5241 | 0.4650 | 0.4724
O=C(/C=C/c1ccc(Cl)c(Cl)c1)Nc1cc(F)cc(F)c1 [2m, (2E)-3-(3,4-Dichlorophenyl)-N-(3,5-difluorophenyl)prop-2-enamide] | 0.9298 | 0.9345 | 0.8882
O=C(/C=C/c1ccc(Cl)cc1)Nc1ccc(F)cc1F [1l, (2E)-3-(4-Chlorophenyl)-N-(2,4-difluorophenyl)prop-2-enamide] | 0.5746 | 0.5172 | 0.5223
O=C(/C=C/c1ccc(Cl)c(Cl)c1)Nc1cccc(Cl)c1 [2f, (2E)-N-(3-Chlorophenyl)-3-(3,4-dichlorophenyl)prop-2-enamide] | 0.7404 | 0.7816 | 0.7616
O=C(/C=C/c1ccc(Cl)cc1)Nc1cc(Cl)ccc1Cl [1o, (2E)-3-(4-Chlorophenyl)-N-(2,5-dichlorophenyl)prop-2-enamide] | 0.9507 | 0.8986 | 0.9010
O=C(/C=C/c1ccc(Cl)cc1)Nc1ccc(Cl)cc1 [1g, (2E)-N,3-bis(4-Chlorophenyl)prop-2-enamide] | 0.5598 | 0.5012 | 0.5065
O=C(/C=C/c1ccc(Cl)c(Cl)c1)Nc1cc(Cl)ccc1Cl [2o, (2E)-N-(2,5-Dichlorophenyl)-3-(3,4-dichlorophenyl)prop-2-enamide] | 1.0840 | 1.0887 | 1.0474
O=C(/C=C/c1ccc(Cl)c(Cl)c1)Nc1cc(Cl)cc(Cl)c1 [2p, (2E)-N-(3,5-Dichlorophenyl)-3-(3,4-dichlorophenyl)prop-2-enamide] | 1.3043 | 1.3336 | 1.3080
O=C(/C=C/c1ccc(Cl)cc1)Nc1ccccc1C(F)(F)F [1h, (2E)-3-(4-Chlorophenyl)-N-[2-(trifluoromethyl)phenyl]prop-2-enamide] | 0.5506 | 0.4938 | 0.5010
O=C(/C=C/c1ccc(Cl)cc1)Nc1ccccc1 [1a, (2E)-3-(4-Chlorophenyl)-N-phenylprop-2-enamide] | 0.4490 | 0.4428 | 0.4515
O=C(/C=C/c1ccc(Cl)c(Cl)c1)Nc1ccccc1C(F)(F)F [2h, (2E)-3-(3,4-Dichlorophenyl)-N-[2-(trifluoromethyl)phenyl]prop-2-enamide] | 0.6836 | 0.7295 | 0.6526
O=C(/C=C/c1ccc(Cl)c(Cl)c1)Nc1ccccc1F [2b, (2E)-N-(2-Fluorophenyl)-3-(3,4-dichlorophenyl)prop-2-enamide] | 0.7764 | 0.8203 | 0.8019
O=C(/C=C/c1ccc(Cl)cc1)Nc1ccccc1F [1b, (2E)-3-(4-Chlorophenyl)-N-(2-fluorophenyl)prop-2-enamide] | 0.6459 | 0.5908 | 0.5965
O=C(/C=C/c1ccc(Cl)cc1)Nc1ccc(OC(F)(F)F)cc1 [1k, (2E)-3-(4-Chlorophenyl)-N-[4-(trifluoromethoxy)phenyl]prop-2-enamide] | 0.8759 | 0.8702 | 0.8754
O=C(/C=C/c1ccc(Cl)c(Cl)c1)Nc1ccccc1Cl [2e, (2E)-N-(2-Chlorophenyl)-3-(3,4-dichlorophenyl)prop-2-enamide] | 0.6488 | 0.6925 | 0.6739
